Assay results as given in patent US9630963B2, “Quinolone derivatives as fibroblast growth factor inhibitors” (Principia Biopharma, Inc., priority 2013, dated 2017).

Key:
[1] = biological target: human recombinant FGFR1 (Homo sapiens, UniProt P11362); assay: FGFR family enzymatic activity assay (Caliper-based kinase assay), FGFR1; assay type: biochemical; conditions: FGFR1 0.5 nM, ATP 100 μM, peptide substrate 1 μM, room temperature 3 h
Excerpt: A Caliper-based kinase assay (Caliper Life Sciences, Hopkinton, Mass.) was used to measure inhibition of FGFR family (FGFR1, FGFR2, FGFR3, FGFR4) kinase activity of a compound of Formula (I′) or (I). […] This value is presented as the IC50.

[2] = tested on: SNU-16 cells; assay: Inhibition of FGFR2-dependent cell growth (Cell-titer Glo); assay type: cell-based; conditions: Homo sapiens, SNU16 cells, 72 hrs incubation, cell viability by Cell-titer Glo
Method: The cell-based effects of FGFR inhibitors were determined by measuring inhibition of FGFR-dependent cell line growth. […] Percent inhibition of cell growth was calculated as a percentage of untreated cell viability. The percent inhibition was plotted as a function of log compound concentration. The IC50 was then calculated for each compound using Prism software from GraphPad.

human recombinant FGFR1, sequence (P11362 22-822): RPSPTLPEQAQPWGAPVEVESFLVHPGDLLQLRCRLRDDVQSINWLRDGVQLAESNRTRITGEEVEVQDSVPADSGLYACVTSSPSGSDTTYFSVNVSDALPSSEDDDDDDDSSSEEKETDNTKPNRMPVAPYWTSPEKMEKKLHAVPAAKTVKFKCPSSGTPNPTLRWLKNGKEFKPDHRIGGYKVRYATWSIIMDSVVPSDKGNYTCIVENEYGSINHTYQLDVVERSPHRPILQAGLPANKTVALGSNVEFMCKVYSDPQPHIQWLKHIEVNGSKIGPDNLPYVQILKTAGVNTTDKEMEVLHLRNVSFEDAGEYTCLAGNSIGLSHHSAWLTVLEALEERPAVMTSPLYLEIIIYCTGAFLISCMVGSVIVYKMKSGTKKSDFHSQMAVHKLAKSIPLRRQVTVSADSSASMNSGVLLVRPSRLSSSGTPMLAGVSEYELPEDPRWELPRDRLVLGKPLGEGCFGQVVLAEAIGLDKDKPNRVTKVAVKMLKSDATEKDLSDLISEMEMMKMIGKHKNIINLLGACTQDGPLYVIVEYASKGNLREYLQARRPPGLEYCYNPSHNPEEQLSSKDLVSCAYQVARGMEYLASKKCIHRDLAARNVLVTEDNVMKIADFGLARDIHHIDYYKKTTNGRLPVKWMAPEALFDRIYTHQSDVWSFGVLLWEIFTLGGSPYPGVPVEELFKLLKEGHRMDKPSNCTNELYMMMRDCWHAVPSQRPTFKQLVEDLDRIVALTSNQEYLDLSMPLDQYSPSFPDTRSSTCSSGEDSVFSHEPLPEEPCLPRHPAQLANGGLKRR

IC50 [1] [nM] | IC50 [2] [nM] | Compound
22.2 | 94.2 | C=CC(=O)Nc1cccc(CCn2c(=O)c(-c3cc(OC)cc(OC)c3)cc3cnc(NC)nc32)n1 [Example 11, N-(6-(2-(6-(3,5-dimethoxyphenyl)-2-(methylamino)-7-oxopyrido[2,3-d]pyrimidin-8(7H)-yl)ethyl)pyridin-2-yl)acrylamide]
3.4 | 24.3 | C=CS(=O)(=O)Nc1ccc(CCn2c(=O)c(-c3cc(OC)cc(OC)c3Cl)cc3cnc(NC)nc32)cc1 [Example 20, N-(4-(2-(6-(2-chloro-3,5-dimethoxyphenyl)-2-(methylamino)-7-oxopyrido[2,3-d]pyrimidin-8(7H)-yl)ethyl)phenyl)ethenesulfonamide]
6.7 | 115 | C=CS(=O)(=O)Nc1cccc(CCn2c(=O)c(-c3cc(OC)cc(OC)c3Cl)cc3cnc(NC)nc32)c1 [Example 21, N-(3-(2-(6-(2-chloro-3,5-dimethoxyphenyl)-2-(methylamino)-7-oxopyrido[2,3-d]pyrimidin-8(7H)-yl)ethyl)phenyl)ethenesulfonamide]
0.4 | 1 | CNc1ncc2cc(-c3cc(OC)cc(OC)c3Cl)c(=O)n(CCc3ccc(NC(=O)/C=C/CN(C)C)cc3)c2n1 [Example 22, (E)-N-(4-(2-(6-(2-chloro-3,5-dimethoxyphenyl)-2-(methylamino)-7-oxopyrido[2,3-d]pyrimidin-8(7H)-yl)ethyl)phenyl)-4-(dimethylamino)but-2-enamide]
1.2 | 1 | CNc1ncc2cc(-c3cc(OC)cc(OC)c3Cl)c(=O)n(CCc3cccc(NC(=O)/C=C/CN(C)C)c3)c2n1 [Example 23, (E)-N-(3-(2-(6-(2-chloro-3,5-dimethoxyphenyl)-2-(methylamino)-7-oxopyrido[2,3-d]pyrimidin-8(7H)-yl)ethyl)phenyl)-4-(dimethylamino)but-2-enamide]
1.7 | 1.8 | C=CC(=O)Nc1ccc(CCn2c(=O)c(-c3cc(OC)cc(OC)c3Cl)cc3cnc(NCC(C)(C)O)nc32)cc1 [Example 24, N-(4-(2-(6-(2-chloro-3,5-dimethoxyphenyl)-2-((2-hydroxy-2-methylpropyl)amino)-7-oxopyrido[2,3-d]pyrimidin-8(7H)-yl)ethyl)phenyl)acrylamide]
0.9 | 7.4 | C=CC(=O)Nc1ccc(CCn2c(=O)c(-c3cc(OC)cc(OC)c3Cl)cc3cnc(N)nc32)cc1 [Example 27, N-(4-(2-(2-amino-6-(2-chloro-3,5-dimethoxyphenyl)-7-oxopyrido[2,3-d]pyrimidin-8(7H)-yl)ethyl)phenyl)acrylamide]
4.3 | 3.8 | C=CC(=O)Nc1ccc(CCn2c(=O)c(-c3cc(OC)cc(OC)c3Cl)cc3cnc(NCC(C)(C)O)nc32)cn1 [Example 28, N-(5-(2-(6-(2-chloro-3,5-dimethoxyphenyl)-2-((2-hydroxy-2-methylpropyl)amino)-7-oxopyrido[2,3-d]pyrimidin-8(7H)-yl)ethyl)pyridin-2-yl)acrylamide]
49.3 |  | C=CC(=O)Nc1ccc(CCn2c(=O)c(-c3cc(OC)cc(OC)c3Cl)cc3cnc(NCCN(CC)CC)nc32)cn1 [Example 29, N-(5-(2-(6-(2-chloro-3,5-dimethoxyphenyl)-2-((2-(diethylamino)ethyl)amino)-7-oxopyrido[2,3-d]pyrimidin-8(7H)-yl)ethyl)pyridin-2-yl)acrylamide]
5.1 | 5 | C=CC(=O)Nc1ccc(CCn2c(=O)c(-c3cc(OC)cc(OC)c3Cl)cc3cnc(NCC(C)(C)C)nc32)cn1 [Example 30, N-(5-(2-(6-(2-chloro-3,5-dimethoxyphenyl)-2-(neopentylamino)-7-oxopyrido[2,3-d]pyrimidin-8(7H)-yl)ethyl)pyridin-2-yl)acrylamide]
1.4 | 3.6 | C=CC(=O)Nc1ccc(CCn2c(=O)c(-c3cc(OC)cc(OC)c3Cl)cc3cnc(NCCN4CCOCC4)nc32)cn1 [Example 31, N-(5-(2-(6-(2-chloro-3,5-dimethoxyphenyl)-2-(2-morpholinoethylamino)-7-oxopyrido[2,3-d]pyrimidin-8(7H)-yl)ethyl)pyridin-2-yl)acrylamide]
1.2 | 6.7 | C=CC(=O)Nc1ccc(CCn2c(=O)c(-c3cc(OC)cc(OC)c3Cl)cc3cnc(NCCCCN(CC)CC)nc32)cn1 [Example 32, N-(5-(2-(6-(2-chloro-3,5-dimethoxyphenyl)-2-((4-(diethylamino)butyl)amino)-7-oxopyrido[2,3-d]pyrimidin-8 (7H)-yl)ethyl)pyridin-2-yl)acrylamide]
4.1 | 32.7 | C=CC(=O)Nc1nc(CCn2c(=O)c(-c3cc(OC)cc(OC)c3Cl)cc3cnc(NC)nc32)cs1 [Example 33, N-(4-(2-(6-(2-chloro-3,5-dimethoxyphenyl)-2-(methylamino)-7-oxopyrido[2,3-d]-pyrimidin-8(7H)-yl)ethyl)thiazol-2-yl)acrylamide]
6 | 3.6 | C=CC(=O)Nc1cccc(CCn2c(=O)c(-c3cc(OC)cc(OC)c3Cl)cc3cnc(NCCN4CCOCC4)nc32)c1 [Example 35, N-(3-(2-(6-(2-chloro-3,5-dimethoxyphenyl)-2-((2-morpholinoethyl)amino)-7-oxo-pyrido[2,3-d]pyrimidin-8(7H)-yl)ethyl)phenyl)acrylamide]
2.4 | 3 | C=CC(=O)Nc1ccc(CCn2c(=O)c(-c3cc(OC)cc(OC)c3Cl)cc3cnc(NCCCN(CC)CC)nc32)cc1 [Example 40, N-(4-(2-(6-(2-chloro-3,5-dimethoxyphenyl)-2-((3-(diethylamino)propyl)amino)-7-oxopyrido[2,3-d]pyrimidin-8(7H)-yl)ethyl)phenyl)acrylamide]
1.8 |  | C=CC(=O)Nc1cccc(CCn2c(=O)c(-c3cc(OC)cc(OC)c3F)cc3cnc(NCCCCN(CC)CC)nc32)c1 [Example 42, N-(3-(2-(6-(2-fluoro-3,5-dimethoxyphenyl)-2-(4-diethylaminobutylamino)-7-oxopyrido[2,3-d]pyrimidin-8(7H)-yl)ethyl)phenyl)acrylamide]
48 |  | C=CC(=O)Nc1cn(CCn2c(=O)c(-c3cc(OC)cc(OC)c3Cl)cc3cnc(NC)nc32)cn1 [Example 48, N-(1-(2-(6-(2-chloro-3,5-dimethoxyphenyl)-2-(methylamino)-7-oxopyrido[2,3-d]-pyrimidin-8(7H)-yl)ethyl)-1H-imidazol-4-yl)acrylamide]
1.2 |  | C=CC(=O)Nc1ccc(CCn2c(=O)c(-c3cc(OC)cc(OC)c3Cl)cc3cnc(NCCN4C[C@@H](C)N[C@@H](C)C4)nc32)cc1 [Example 85, N-(4-(2-(6-(2-chloro-3,5-dimethoxyphenyl)-2-((2-((3S,5R)-3,5-dimethylpiperazin-1-yl)ethyl)amino)-7-oxopyrido[2,3-d]pyrimidin-8(7H)-yl)ethyl)phenyl)acrylamide]
6.2 |  | C=CC(=O)Nc1ccc(CCn2c(=O)c(-c3cc(OC)cc(OC)c3Cl)cc3cnc(NC(C)(CO)CO)nc32)cc1 [Example 95, N-(4-(2-(6-(2-chloro-3,5-dimethoxyphenyl)-2-((1,3-dihydroxy-2-methylpropan-2-yl)amino)-7-oxopyrido[2,3-d]pyrimidin-8(7H)-yl)ethyl)phenyl)acrylamide]
9.8 |  | C=CC(=O)Nc1ccc(CCn2c(=O)c(-c3cc(OC)cc(OC)c3Cl)cc3cnc(NCC4(O)CCN(C)CC4)nc32)cc1 [Example 96, N-(4-(2-(6-(2-chloro-3,5-dimethoxyphenyl)-2-(((4-hydroxy-1-methylpiperidin-4-yl)methyl)-amino)-7-oxopyrido[2,3-d]pyrimidin-8(7H)-yl)ethyl)phenyl)acrylamide]
 | 26.2 | C=CC(=O)Nc1ccc(CCn2c(=O)c(-c3c(Cl)c(OC)cc(OC)c3Cl)cc3cnc(NC(CC)(CO)CO)nc32)nc1 [Example 100, N-(6-(2-(6-(2,6-dichloro-3,5-dimethoxyphenyl)-2-((1-hydroxy-2-(hydroxymethyl)-butan-2-yl)amino)-7-oxopyrido[2,3-d]pyrimidin-8(7H)-yl)ethyl)pyridin-3-yl)acrylamide]
29.6 |  | C=CC(=O)Nc1ccc(CCn2c(=O)c(-c3c(Cl)cccc3Cl)cc3cnc(NC)nc32)cc1 [Example 106, N-(4-(2-(6-(2,6-dichlorophenyl)-2-(methylamino)-7-oxopyrido[2,3-d]pyrimidin-8(7H)-yl)ethyl)phenyl)acrylamide]
12.5 |  | C=CC(=O)Nc1ccc(CCn2c(=O)c(-c3c(Cl)cccc3Cl)cc3cnc(NC)nc32)nc1 [Example 107, N-(6-(2-(6-(2,6-dichlorophenyl)-2-(methylamino)-7-oxopyrido[2,3-d]pyrimidin-8(7H)-yl)ethyl)pyridin-3-yl)acrylamide]
8.2 |  | C=CC(=O)Nc1ccc(CCn2c(=O)c(-c3cc(OC)cc(OC)c3Cl)cc3cnc(Nc4ccccn4)nc32)nc1 [Example 108, N-(6-(2-(6-(2-chloro-3,5-dimethoxyphenyl)-7-oxo-2-(pyridin-2-ylamino)pyrido[2,3-d]pyrimidin-8(7H)-yl)ethyl)pyridin-3-yl)acrylamide]
1.9 |  | C=CC(=O)Nc1ccc(CCn2c(=O)c(-c3cc(OC)cc(OC)c3Cl)cc3cnc(NCC(C)(C)N4CCOCC4)nc32)cc1 [Example 110, N-(4-(2-(6-(2-chloro-3,5-dimethoxyphenyl)-2-((2-methyl-2-morpholinopropyl)-amino)-7-oxopyrido[2,3-d]pyrimidin-8(7H)-yl)ethyl)phenyl)acrylamide]
3.4 |  | C=CC(=O)Nc1ccc(CCn2c(=O)c(-c3cc(OC)cc(OC)c3Cl)cc3cnc(NCCN4CCC(F)(F)CC4)nc32)cc1 [Example 111, N-(4-(2-(6-(2-chloro-3,5-dimethoxyphenyl)-2-((2-(4,4-difluoropiperidin-1-yl)-ethyl)amino)-7-oxopyrido[2,3-d]pyrimidin-8(7H)-yl)ethyl)phenyl)acrylamide]
